The results in this text go back to article PMC6934184, “Selective DNA-PKcs inhibition extends the therapeutic index of localized radiotherapy and chemotherapy” (The Journal of Clinical Investigation, 2019).

The assay has as its target T1, MET (cMet) (Homo sapiens, UniProt P08581).
T1 construct: purchased Thermo Fisher Scientific (Life Technologies) SelectScreen
Put plainly: SelectScreen Z'LYTE. It is filed as biochemical. The method, boiled down: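 Percent values come from Thermo SelectScreen profiling of NU5455, combining activity and binding assays. CSF1R was run in Z'LYTE format at Km app ATP, and CAMK1 in Adapta format with ATP listed at 10.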

T1 sequence (P08581 25-1390): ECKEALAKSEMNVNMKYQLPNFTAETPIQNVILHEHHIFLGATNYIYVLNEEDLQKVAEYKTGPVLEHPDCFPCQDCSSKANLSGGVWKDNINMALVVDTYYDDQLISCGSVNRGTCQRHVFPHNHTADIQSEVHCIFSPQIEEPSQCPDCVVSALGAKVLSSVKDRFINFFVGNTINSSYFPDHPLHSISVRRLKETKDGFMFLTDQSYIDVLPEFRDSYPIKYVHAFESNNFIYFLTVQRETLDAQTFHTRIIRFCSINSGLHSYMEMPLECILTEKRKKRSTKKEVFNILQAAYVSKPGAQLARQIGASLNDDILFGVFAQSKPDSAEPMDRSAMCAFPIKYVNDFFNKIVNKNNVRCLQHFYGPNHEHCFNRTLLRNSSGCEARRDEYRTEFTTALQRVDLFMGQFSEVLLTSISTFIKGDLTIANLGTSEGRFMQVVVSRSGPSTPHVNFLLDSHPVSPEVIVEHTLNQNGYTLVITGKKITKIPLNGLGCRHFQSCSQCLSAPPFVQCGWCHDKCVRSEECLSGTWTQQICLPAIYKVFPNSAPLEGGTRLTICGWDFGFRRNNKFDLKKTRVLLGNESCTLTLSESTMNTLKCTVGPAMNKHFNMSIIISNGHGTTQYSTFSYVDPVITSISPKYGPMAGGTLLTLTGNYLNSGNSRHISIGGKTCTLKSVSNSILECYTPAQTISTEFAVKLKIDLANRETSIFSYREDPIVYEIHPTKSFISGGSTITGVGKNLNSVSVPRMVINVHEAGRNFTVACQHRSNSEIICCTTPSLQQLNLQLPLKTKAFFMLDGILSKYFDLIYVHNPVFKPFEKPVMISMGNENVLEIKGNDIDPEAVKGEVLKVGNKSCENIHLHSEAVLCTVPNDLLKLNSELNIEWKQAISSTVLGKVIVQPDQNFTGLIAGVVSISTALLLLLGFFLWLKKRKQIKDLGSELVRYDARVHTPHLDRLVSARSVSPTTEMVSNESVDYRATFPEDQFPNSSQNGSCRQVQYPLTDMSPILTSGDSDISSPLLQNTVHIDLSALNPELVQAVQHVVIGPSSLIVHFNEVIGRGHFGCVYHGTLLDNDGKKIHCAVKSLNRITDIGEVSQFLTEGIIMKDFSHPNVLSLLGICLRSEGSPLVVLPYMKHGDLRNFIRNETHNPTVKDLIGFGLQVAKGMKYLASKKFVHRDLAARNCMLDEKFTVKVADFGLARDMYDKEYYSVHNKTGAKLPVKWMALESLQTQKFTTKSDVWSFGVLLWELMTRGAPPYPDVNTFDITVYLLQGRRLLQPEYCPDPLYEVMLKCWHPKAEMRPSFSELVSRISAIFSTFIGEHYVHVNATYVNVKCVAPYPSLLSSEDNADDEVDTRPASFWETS

`CN(C(=O)CN1CCOCC1)c1ccc2sc3c(-c4cccc5c(=O)cc(N6CC7CCC(C6)O7)oc45)cccc3c2c1` [NU5455]: the inhibition at 1 µM was -15.1%.
